Measured values as given in patent US20240208992A1, “MACROCYCLES AS CFTR MODULATORS” (Idorsia Pharmaceuticals Ltd, priority 2021, published 2024).

Target: human F508del-CFTR (Homo sapiens, UniProt P13569, DEL508-508)
Assay: F508del-CFTR cell surface expression (corrector activity), DiscoveRx ß-galactosidase complementation chemiluminescence assay in recombinant U2OS cell line;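 note: U2OS cells co-expressing ProLink-tagged F508del-CFTR and a membrane-anchored enzyme acceptor, where more surface CFTR restores β-galactosidase activity measured by chemiluminescence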
Details: U2OS cell line, 16h compound incubation; for EC50: EC50, F508del-CFTR cell surface expression, geomean values; for Emax: U2OS, in relation to the Emax of the corrector lumacaftor (=100%), arithmetic mean values

Sequence of human F508del-CFTR (P13569 with tags, fused parts or gaps DEL508-508): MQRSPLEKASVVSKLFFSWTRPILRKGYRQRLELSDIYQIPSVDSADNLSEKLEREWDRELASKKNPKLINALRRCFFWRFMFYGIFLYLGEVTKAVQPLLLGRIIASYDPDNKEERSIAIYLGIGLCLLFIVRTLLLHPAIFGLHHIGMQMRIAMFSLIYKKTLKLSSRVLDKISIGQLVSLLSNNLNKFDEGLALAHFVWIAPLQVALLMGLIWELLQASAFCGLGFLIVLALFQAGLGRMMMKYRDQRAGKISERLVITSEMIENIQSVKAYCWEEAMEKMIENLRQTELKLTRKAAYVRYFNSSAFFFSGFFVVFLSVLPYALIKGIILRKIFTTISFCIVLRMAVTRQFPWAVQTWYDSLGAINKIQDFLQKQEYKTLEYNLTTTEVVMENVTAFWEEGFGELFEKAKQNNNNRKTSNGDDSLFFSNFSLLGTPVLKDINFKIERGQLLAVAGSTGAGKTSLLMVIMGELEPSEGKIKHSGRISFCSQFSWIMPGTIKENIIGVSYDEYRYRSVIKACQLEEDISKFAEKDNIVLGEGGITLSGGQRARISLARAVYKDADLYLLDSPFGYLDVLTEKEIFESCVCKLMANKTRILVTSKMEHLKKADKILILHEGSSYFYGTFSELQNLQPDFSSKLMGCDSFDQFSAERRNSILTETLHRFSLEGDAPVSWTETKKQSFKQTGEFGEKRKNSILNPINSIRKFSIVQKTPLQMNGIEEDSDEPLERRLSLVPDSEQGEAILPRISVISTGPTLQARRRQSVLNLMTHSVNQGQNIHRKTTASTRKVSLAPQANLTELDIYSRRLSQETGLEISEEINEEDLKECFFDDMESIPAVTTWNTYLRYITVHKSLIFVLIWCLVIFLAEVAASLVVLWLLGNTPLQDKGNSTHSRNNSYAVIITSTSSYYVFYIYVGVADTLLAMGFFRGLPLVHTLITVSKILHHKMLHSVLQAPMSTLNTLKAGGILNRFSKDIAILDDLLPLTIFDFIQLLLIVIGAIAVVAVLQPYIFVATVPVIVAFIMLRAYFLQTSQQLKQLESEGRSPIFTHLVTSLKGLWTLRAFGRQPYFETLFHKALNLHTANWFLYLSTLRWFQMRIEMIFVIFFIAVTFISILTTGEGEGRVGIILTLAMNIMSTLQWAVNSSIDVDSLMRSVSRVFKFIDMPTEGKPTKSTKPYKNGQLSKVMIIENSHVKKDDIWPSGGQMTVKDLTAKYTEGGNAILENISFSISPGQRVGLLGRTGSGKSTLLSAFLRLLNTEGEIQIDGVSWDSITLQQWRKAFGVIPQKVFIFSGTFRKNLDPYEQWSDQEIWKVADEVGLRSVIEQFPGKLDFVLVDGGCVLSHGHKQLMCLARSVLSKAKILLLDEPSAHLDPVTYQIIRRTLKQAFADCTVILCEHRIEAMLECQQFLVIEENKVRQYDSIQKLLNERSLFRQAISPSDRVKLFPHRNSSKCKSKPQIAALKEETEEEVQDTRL

| SMILES | EC50 [nM] | Emax [%] |
| --- | --- | --- |
| CN1C(=O)C[C@@H](C(=O)NCCc2ccc3c(c2)OCO3)NC(=O)c2c(ccc3ccccc23)OC[C@@H](Cc2ccccc2)NC(=O)CN(CC[C@@H]2CCCCO2)C(=O)[C@@H]1CC1CCC1 [Example 360, (3S,7S,13R)-N-(2-(benzo[d][1,3]dioxol-5-yl)ethyl)-13-benzyl-7-(cyclobutylmethyl)-6-methyl-1,5,8,11-tetraoxo-9-(2-((S)-tetrahydro-2H-pyran-2-yl)ethyl)-1,2,3,4,5,6,7,8,9,10,11,12,13,14-tetradecahydronaphtho[1,2-p][1]oxa[4,7,10,14]tetraazacycloheptadecine-3-carboxamide] | 184 | 224 |
| CN1C(=O)C[C@@H](C(=O)NCCc2ccc3c(c2)OCO3)NC(=O)c2c(ccc3ccccc23)OC[C@@H](Cc2ccccc2)NC(=O)CN(CC[C@H]2CCCCO2)C(=O)[C@@H]1CC1CCC1 [Example 361, (3S,7S,13R)-N-(2-(benzo[d][1,3]dioxol-5-yl)ethyl)-13-benzyl-7-(cyclobutylmethyl)-6-methyl-1,5,8,11-tetraoxo-9-(2-((R)-tetrahydro-2H-pyran-2-yl)ethyl)-1,2,3,4,5,6,7,8,9,10,11,12,13,14-tetradecahydronaphtho[1,2-p][1]oxa[4,7,10,14]tetraazacycloheptadecine-3-carboxamide] | 264 | 183 |
| CC(C)C[C@H]1C(=O)N(CC[C@@H]2CCCCO2)CC(=O)N[C@H](Cc2ccccc2)COc2ccc3ccccc3c2C(=O)N[C@H](C(=O)NCCc2ccc3c(c2)OCO3)CC(=O)N1C [Example 362, (3S,7S,13R)-N-(2-(benzo[d][1,3]dioxol-5-yl)ethyl)-13-benzyl-7-isobutyl-6-methyl-1,5,8,11-tetraoxo-9-(2-((S)-tetrahydro-2H-pyran-2-yl)ethyl)-1,2,3,4,5,6,7,8,9,10,11,12,13,14-tetradecahydronaphtho[1,2-p][1]oxa[4,7,10,14]tetraazacycloheptadecine-3-carboxamide] | 153 | 247 |
| CC(C)C[C@H]1C(=O)N(CC[C@H]2CCCCO2)CC(=O)N[C@H](Cc2ccccc2)COc2ccc3ccccc3c2C(=O)N[C@H](C(=O)NCCc2ccc3c(c2)OCO3)CC(=O)N1C [Example 363] | 252 | 230 |
| COc1cccc(CCNC(=O)[C@@H]2CC(=O)N(C)[C@@H](CC(C)C)C(=O)N3CCN(CC(C)C)C[C@@H]3C(=O)N[C@H](Cc3ccccc3)COc3ccc4ncn(C)c4c3C(=O)N2)c1 [Example 364, (8S,12S,18aR,21R)-21-benzyl-12,17-diisobutyl-N-(3-methoxyphenethyl)-5,11-dimethyl-6,10,13,19-tetraoxo-6,7,8,9,10,11,12,13,16,17,18,18a,19,20,21,22-hexadecahydro-5H,15H-imidazo[4′,5′:5,6]benzo[1,2-p]pyrazino[2,1-f][1]oxa[4,7,10,14]tetraazacycloheptadecine-8-carboxamide] | 264 | 201 |
| COc1cccc(CCNC(=O)[C@@H]2CC(=O)N(C)[C@@H](CC(C)C)C(=O)N3CCCC[C@@H]3C(=O)N[C@H](Cc3ccccc3)COc3cnc4ccccc4c3C(=O)N2)c1 [Example 365, (9S,13S,19aR,22R)-22-benzyl-13-isobutyl-N-(3-methoxyphenethyl)-12-methyl-7,11,14,20-tetraoxo-7,8,9,10,11,12,13,14,17,18,19,19a,20,21,22,23-hexadecahydro-16H-pyrido[2′,1′:6,7][1]oxa[4,7,10,14]tetraazacycloheptadecino[17,16-c]quinoline-9-carboxamide] | 398 | 387 |
| COc1cccc(CCNC(=O)[C@@H]2CC(=O)N(C)[C@@H](CC(C)C)C(=O)N3CCCC[C@H]3C(=O)N[C@H](Cc3ccccc3)COc3cnc4ccccc4c3C(=O)N2)c1 [Example 366, (9S,13S,19aS,22R)-22-benzyl-13-isobutyl-N-(3-methoxyphenethyl)-12-methyl-7,11,14,20-tetraoxo-7,8,9,10,11,12,13,14,17,18,19,19a,20,21,22,23-hexadecahydro-16H-pyrido[2′,1′:6,7][1]oxa[4,7,10,14]tetraazacycloheptadecino[17,16-c]quinoline-9-carboxamide] | 265 | 172 |
| Cc1cc(CCNC(=O)[C@@H]2CC(=O)N(C)[C@@H](CC(C)C)C(=O)N3CCCC[C@@H]3C(=O)N[C@H](Cc3ccccc3)COc3cnc4ccccc4c3C(=O)N2)on1 [Example 367, (9S,13S,19aR,22R)-22-benzyl-13-isobutyl-12-methyl-N-(2-(3-methylisoxazol-5-yl)ethyl)-7,11,14,20-tetraoxo-7,8,9,10,11,12,13,14,17,18,19,19a,20,21,22,23-hexadecahydro-16H-pyrido[2′,1′:6,7][1]oxa[4,7,10,14]tetraazacycloheptadecino[17,16-c]quinoline-9-carboxamide] | 249 | 321 |
| COc1cc(CCNC(=O)[C@@H]2CC(=O)N(C)[C@@H](CC(C)C)C(=O)N3CCCC[C@@H]3C(=O)N[C@H](Cc3ccccc3)COc3ccc4oc(C)nc4c3C(=O)N2)cc(OC)c1 [Example 368, (8S,12S,18aR,21R)-21-benzyl-N-(3,5-dimethoxyphenethyl)-12-isobutyl-4,11-dimethyl-6,10,13,19-tetraoxo-6,7,8,9,10,11,12,13,16,17,18,18a,19,20,21,22-hexadecahydro-15H-oxazolo[5′,4′:5,6]benzo[1,2-p]pyrido[2,1-f][1]oxa[4,7,10,14]tetraazacycloheptadecine-8-carboxamide] | 918 | 147 |
| COc1cccc(CCNC(=O)[C@@H]2CC(=O)N(C)[C@@H](CC(C)C)C(=O)N3CCN(C(=O)OCC(Cl)(Cl)Cl)C[C@@H]3C(=O)N[C@H](Cc3ccccc3)COc3ccc4ccccc4c3C(=O)N2)c1 [Example 369, 2,2,2-trichloroethyl (4aR,7R,18S,22S)-7-benzyl-22-isobutyl-18-((3-methoxyphenethyl)carbamoyl)-21-methyl-5,16,20,23-tetraoxo-1,2,4,4a,5,6,7,8,16,17,18,19,20,21,22,23-hexadecahydro-3H-naphtho[1,2-p]pyrazino[2,1-f][1]oxa[4,7,10,14]tetraazacycloheptadecine-3-carboxylate] | 107 | 243 |
| CC(C)C[C@H]1C(=O)N2CCOC[C@@H]2C(=O)N[C@H](Cc2ccccc2)COc2ccc3ccccc3c2C(=O)N[C@H](C(=O)NCCc2nc3c(s2)CCC3)CC(=O)N1C [Example 370, (4aR,7R,18S,22S)-7-benzyl-N-(2-(5,6-dihydro-4H-cyclopenta[d]thiazol-2-yl)ethyl)-22-isobutyl-21-methyl-5,16,20,23-tetraoxo-1,2,4,4a,5,6,7,8,16,17,18,19,20,21,22,23-hexadecahydronaphtho[1,2-p][1,4]oxazino[3,4-f][1]oxa[4,7,10,14]tetraazacycloheptadecine-18-carboxamide] | 388 | 229 |
| CC(C)C[C@H]1C(=O)N2CCOC[C@@H]2C(=O)N[C@H](Cc2ccccc2)COc2ccc3ccccc3c2C(=O)N[C@H](C(=O)NCCc2cccc(OC(F)F)c2)CC(=O)N1C [Example 371, (4aR,7R,18S,22S)-7-benzyl-N-(3-(difluoromethoxy)phenethyl)-22-isobutyl-21-methyl-5,16,20,23-tetraoxo-1,2,4,4a,5,6,7,8,16,17,18,19,20,21,22,23-hexadecahydronaphtho[1,2-p][1,4]oxazino[3,4-f][1]oxa[4,7,10,14]tetraazacycloheptadecine-18-carboxamide] | 226 | 180 |
| COc1cccc(CCNC(=O)[C@@H]2CC(=O)N(C)[C@@H](CC(C)C)C(=O)N3CCN(CC(C)C)C[C@@H]3C(=O)N[C@H](Cc3ccccc3)COc3cnc4ccccc4c3C(=O)N2)c1 [Example 372, (9S,13S,19aR,22R)-22-benzyl-13,18-diisobutyl-N-(3-methoxyphenethyl)-12-methyl-7,11,14,20-tetraoxo-7,8,9,10,11,12,13,14,17,18,19,19a,20,21,22,23-hexadecahydro-16H-pyrazino[2′,11:6,7][1]oxa[4,7,10,14]tetraazacycloheptadecino[17,16-c]quinoline-9-carboxamide] | 72 | 360 |
| COc1cccc(CCNC(=O)[C@@H]2CC(=O)N(C)[C@@H](CC(C)C)C(=O)N3CCN(CC(C)C)C[C@H]3C(=O)N[C@H](Cc3ccccc3)COc3cnc4ccccc4c3C(=O)N2)c1 [Example 373, (9S,13S,19aS,22R)-22-benzyl-13,18-diisobutyl-N-(3-methoxyphenethyl)-12-methyl-7,11,14,20-tetraoxo-7,8,9,10,11,12,13,14,17,18,19,19a,20,21,22,23-hexadecahydro-16H-pyrazino[2′,11:6,7][1]oxa[4,7,10,14]tetraazacycloheptadecino[17,16-c]quinoline-9-carboxamide] | 200 | 149 |
| COc1cccc(CCNC(=O)[C@@H]2CC(=O)N(C)[C@@H](CC(C)C)C(=O)N3CCN(C(C)C)C[C@@H]3C(=O)N[C@H](Cc3ccccc3)COc3cnc4ccccc4c3C(=O)N2)c1 [Example 374, (9S,13S,19aR,22R)-22-benzyl-13-isobutyl-18-isopropyl-N-(3-methoxyphenethyl)-12-methyl-7,11,14,20-tetraoxo-7,8,9,10,11,12,13,14,17,18,19,19a,20,21,22,23-hexadecahydro-16H-pyrazino[2′,1′:6,7][1]oxa[4,7,10,14]tetraazacycloheptadecino[17,16-c]quinoline-9-carboxamide] | 102 | 333 |
| Cc1cc(CCNC(=O)[C@@H]2CC(=O)N(C)[C@@H](CC(C)C)C(=O)N3CCN(C(C)C)C[C@@H]3C(=O)N[C@H](Cc3ccccc3)COc3cnc4ccccc4c3C(=O)N2)on1 [Example 375, (9S,13S,19aR,22R)-22-benzyl-13-isobutyl-18-isopropyl-12-methyl-N-(2-(3-methylisoxazol-5-yl)ethyl)-7,11,14,20-tetraoxo-7,8,9,10,11,12,13,14,17,18,19,19a,20,21,22,23-hexadecahydro-16H-pyrazino[2′,1′:6,7][1]oxa[4,7,10,14]tetraazacycloheptadecino[17,16-c]quinoline-9-carboxamide] | 461 | 316 |
